According to PMC2770570 (BMC Cancer, 2009):
Entries after “also recorded” stand apart in the source; their conditions may differ. Counter-ions that a name gives are not always drawn.

Columns and labels:
KAT-18 cells [1] = assay: Cell proliferation assay (cell number), KAT-18 anaplastic thyroid cancer cells; format: cell-based, human
Description: The ATC cell line, KAT-18, was generously provided by Dr. K.B. Ain, The University of Kentucky, Lexington, KY) and the FTC cell line, WRO 82-1, was established by Dr. G. Juillard (University of California at Los Angeles, CA). The poorly differentiated papillary thyroid carcinoma cell line, KTC-1 [31], was a generous gift of Dr. James A. Fagin (Memorial Sloan Kettering Cancer Center, New York, NY). […] The cell cultures were maintained in a humidified atmosphere of 5% CO2 at 37°C. All cell lines were free of Mycoplasma and confirmed by single nucleotide polymorphism array analysis to be unique follicular cell-derived thyroid cancer cell lines.
Media and compounds were replaced daily. […] Cell viability was determined by trypan blue staining. At least two aliquots per well, and 2-4 wells/treatment, were counted for each experiment. Two to five experiments were conducted for each measure performed.

KAT-18 cells [2] = assay: Growth of KAT-18 cells transfected with OGFr siRNA or scrambled siRNA; format: cell-based, human
Description: (§1) The OGFr-targeted siRNAs (antisense:5'-[…]-3'; sense: 5'-[…]-3') were designed and obtained as ready-annealed, purified duplex probes from Ambion (Austin, TX). For transfection, 5 × 10^4 KAT-18 cells per well were seeded in 6-well plates containing 1 ml of serum-containing media without antibiotics. In each well, 20 nM OGFr-siRNA or control siRNA solutions in serum-free media were added. […] At 72 h cells were collected for computing growth. Two independent experiments were conducted. The scrambled siRNAs were purchased from Ambion.

KAT-18 cells [3] = assay: DNA synthesis (BrdU incorporation) in KAT-18 cells; format: cell-based, human; settings: 10^-6 M, 72 h; 30 μM BrdU 3 h prior to fixing (Fig. 5)
Description: To examine DNA synthesis, KAT-18 cells were seeded onto 22 mm diameter coverglasses placed in 6-well plates (3 × 10^3 cells/coverglass), and treated with compounds for 72 h; media and drugs were replaced daily. Three h prior to fixing cells, 30 μM BrdU (Sigma Chemicals, Indianapolis, IN) was added to cultures. Cells were rinsed, fixed in 10% neutral buffered formalin for 10 min, and stained with antibodies to BrdU (anti-BrdU-BOD, Roche/Invitrogen). At least 1000 cells/treatment using at least 2 coverglasses/treatment were counted, and the number of positive cells recorded. Labeling indexes were calculated as the number of positive stained cells divided by total cells.

KAT-18 cells [4] = assay: Apoptosis (TUNEL) in KAT-18 cells; format: cell-based, human; settings: 72 h, data not shown
Description: Cells were harvested after 72 h of drug treatment, and TUNEL assays conducted according to manufacturer's recommendations.

KAT-18 cells [5] = assay: Necrosis (trypan blue) in KAT-18 cells; format: cell-based, human; settings: data not shown
Description: Necrosis was recorded as the number of positive trypan blue cells in any cell growth assay.

KTC-1 cells = assay: Cell proliferation assay (cell number), KTC-1 papillary thyroid cancer cells; format: cell-based, human; settings: 10^-6 M, 72 h (Fig. 6B)
Description: (§2) The ATC cell line, KAT-18, was generously provided by Dr. K.B. Ain, The University of Kentucky, Lexington, KY) and the FTC cell line, WRO 82-1, was established by Dr. G. Juillard (University of California at Los Angeles, CA). The poorly differentiated papillary thyroid carcinoma cell line, KTC-1 [31], was a generous gift of Dr. James A. Fagin (Memorial Sloan Kettering Cancer Center, New York, NY). The KAT-18 cells were grown in phenol-red free RPMI 1640 media (GIBCO/Invitrogen, Carlsbad, CA), and the WRO 82-1 and KTC-1 cells were grown in standard RPMI 1640 media supplemented with 1% non-essential amino acids. All media were supplemented with 10% fetal calf serum, 2 mM L-glutamine, 1.2% sodium bicarbonate, and antibiotics (5,000 Units/ml penicillin, 5 mg/ml streptomycin, 10 mg/ml neomycin). The cell cultures were maintained in a humidified atmosphere of 5% CO2 at 37°C. […]
(§3) Cells were seeded at equivalent amounts into 6- or 24-well plates (Falcon) and counted 24 h later (time 0) to determine plating efficiency. […] Cells were harvested by trypsinization with 0.25% trypsin/0.53 mM EDTA, centrifuged, and counted with a hemacytometer. Cell viability was determined by trypan blue staining. At least two aliquots per well, and 2-4 wells/treatment, were counted for each experiment. […]

WRO 82-1 cells = assay: Cell proliferation assay (cell number), WRO 82-1 follicular thyroid cancer cells; format: cell-based, human; settings: 10^-6 M, 72 h (Fig. 7B)
Description: as §2, §3

OGFr mRNA = assay: Northern blot analysis of OGFr after siRNA transfection of KAT-18 cells; format: cell-based, human; settings: 20 nM siRNA; OGFr/GAPDH ratio by densitometry (Fig. 4A)
Description: as §1
Some cultures were transfected with siRNAs and then harvested 72 h later for Northern analysis. Total RNA was extracted using the Paris Kit (Ambion), separated on an agarose gel, and mRNA transferred to nylon membrane (Immobilon, Bio-Rad Laboratories, Hercules, CA). Membranes were probed with ^32P-dCTP- OGFr cDNA. To determine equal loading, blots were stripped and reprobed with radiolabeled GAPDH and optical density of each band was determined by densitometry and analyzed by QuickOne (Bio-Rad Laboratories). Each value was normalized to GAPDH from the same blot.

OGFr protein = assay: Semi-quantitative immunocytochemistry of OGFr protein after siRNA transfection of KAT-18 cells; format: cell-based, human; settings: 72 h after transfection; mean staining intensity, approximately 50 cells/group (Fig. 4B)
Description: as §1
KAT-18 cells were seeded onto coverglasses, transiently transfected with OGFr-siRNA, and 72 h later stained with polyclonal antibodies to OGFr in order to detect the level of protein knockdown. OGFr protein levels were assessed by semi-quantitative immunocytochemistry whereby images were taken at the same exposure time with special care not to photobleach samples. The mean intensity of staining was determined for approximately 50 cells/group.

OGFr = target: T1, OGFr (Homo sapiens, UniProt Q9NZT2); assay: receptor binding assay
T1 chain: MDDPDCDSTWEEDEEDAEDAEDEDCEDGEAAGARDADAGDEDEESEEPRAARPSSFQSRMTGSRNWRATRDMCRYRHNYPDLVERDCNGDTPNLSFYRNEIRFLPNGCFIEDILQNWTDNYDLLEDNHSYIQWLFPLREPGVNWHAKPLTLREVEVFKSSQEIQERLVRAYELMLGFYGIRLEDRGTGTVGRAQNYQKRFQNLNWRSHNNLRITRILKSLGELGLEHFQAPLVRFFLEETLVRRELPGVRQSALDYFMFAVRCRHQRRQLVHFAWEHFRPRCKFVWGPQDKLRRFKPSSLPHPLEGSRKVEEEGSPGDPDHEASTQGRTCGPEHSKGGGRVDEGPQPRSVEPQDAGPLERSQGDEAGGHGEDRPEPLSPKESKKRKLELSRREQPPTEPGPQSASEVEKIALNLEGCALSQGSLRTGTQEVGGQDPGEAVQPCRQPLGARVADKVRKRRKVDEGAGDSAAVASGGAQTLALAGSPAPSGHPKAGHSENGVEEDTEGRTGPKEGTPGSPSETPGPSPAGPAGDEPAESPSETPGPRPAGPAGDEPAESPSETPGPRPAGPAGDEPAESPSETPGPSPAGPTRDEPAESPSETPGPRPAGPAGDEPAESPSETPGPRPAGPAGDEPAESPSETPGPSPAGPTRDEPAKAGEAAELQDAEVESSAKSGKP

[6] = 10^-6 M, 72 h, opioid specificity experiment (Fig. 3A)
[7] = 10^-6 M OGF, cells transfected with OGFr siRNA (Fig. 4C)
[8] = 10^-6 M NTX, cultures receiving OGFr siRNA (Fig. 4C)

[D-Ala^2, MePhe^4, Glycol^5]-enkephalin [DAMGO]
effect on cell proliferation vs control (KAT-18 cells [1]; [6]): Only OGF altered cell proliferation significantly

[Met^5]-enkephalin [OGF]
reduction in cell number from control (KAT-18 cells [1]; 10^-4 M, 72 h, dose-response (Fig. 2A)): 38%
reduction in cell number from control (KAT-18 cells [1]; 10^-5 M, 72 h, dose-response (Fig. 2A)): 13%
reduction in cell number from control (KAT-18 cells [1]; 10^-6 M continuously, at 96 h (Fig. 2D)): 16%
reduction in cell number from control (KAT-18 cells [1]; 10^-6 M continuously, at 120 h (Fig. 2D)): 28%
reduction in cell number from control (KAT-18 cells [1]; 10^-6 M for 72 h, then media without OGF, at 96 h (Fig. 2D)): 6%
reduction in cell number from control (KAT-18 cells [1]; 10^-6 M for 72 h, then media without OGF, at 120 h (Fig. 2D)): 8%
reduction in cell number from control (KAT-18 cells [1]; 10^-6 M, 72 h, dose-response (Fig. 2A)): 14%
reduction in cell number from control (KAT-18 cells [1]; 10^-6 M, 72 h, naloxone experiment (Fig. 2C)): 20%
decrease in cell number from control (KAT-18 cells [1]; [6]): 33%
reduction in cell number from control (KAT-18 cells [1]; 10^-6 M, 72 h, reversibility study (Fig. 2D)): 22%
effect on cell number vs control (KAT-18 cells [1]; 10^-7 M, 72 h, dose-response (Fig. 2A)): no significant effect on cell number
duration of growth repression in presence of drug (KAT-18 cells [1]; KAT-18 cells): up to 120 h
time to observed growth repression after initiating drug exposure (KAT-18 cells [1]; KAT-18 cells): ≤ 24 h
maximum reduction in cell number ("by as much as") (KAT-18 cells [1]; KAT-18 cells, abstract): ≤ 38%
cell number, OGF vs sterile water (KAT-18 cells [2]; [7]): did not differ in cell number from each other
effect on cell number (KAT-18 cells [2]; [7]): no effect
reduction in cell number (KAT-18 cells [2]; 10^-6 M OGF, untransfected cultures and those transfected with scrambled siRNAs (Fig. 4C)): 30%
decrease in proportion of BrdU labeled cells vs control (KAT-18 cells [3]): 28%
number of apoptotic cells vs control (KAT-18 cells [4]): No differences in the number of apoptotic or necrotic cells
necrosis (KAT-18 cells [5]): negligible
number of necrotic cells vs control (KAT-18 cells [5]): No differences in the number of apoptotic or necrotic cells
reduction in cell number from control (KTC-1 cells): 31%
reduction in cell number from control (WRO 82-1 cells): 17%

endomorphin 2
effect on cell proliferation vs control (KAT-18 cells [1]; [6]): Only OGF altered cell proliferation significantly

β-endorphin (YGGFMTSEKSQTPLVTLFKNAIIKNAYKKGE; Beta-endorphin; UniProt P01189 237-267, looked up)
effect on cell proliferation vs control (KAT-18 cells [1]; [6]): Only OGF altered cell proliferation significantly

antisense:5'-uagaaacucagguuuggcg-3'; sense: 5'-cgccaaaccugaguuucua-3' (sense CGCCAAACCUGAGUUUCUA; antisense UAGAAACUCAGGUUUGGCG; chemistry not fully specified) [OGFr siRNA, OGFr-targeted siRNAs, ready-annealed, purified duplex probes from Ambion]
OGFr level relative to cells treated with vehicle only (OGFr mRNA): less than 25%
decrease in OGFr protein expression relative to untransfected and scrambled siRNA cells (OGFr protein): 47%
increase in cell number vs vehicle only and scrambled siRNA (KAT-18 cells [2]; 20 nM siRNA, 72 h (Fig. 4C)): approximately 70%
effectiveness of OGFr siRNA knockdown in increasing cell number relative to NTX (KAT-18 cells [2]; KAT-18 cells): over twice as effective

[D-Pen^2,5]-enkephalin [DPDPE]
effect on cell proliferation vs control (KAT-18 cells [1]; [6]): Only OGF altered cell proliferation significantly

CN1CC[C@]23c4c5ccc(O)c4O[C@H]2[C@@H](O)C=C[C@H]3[C@H]1C5 [morphine, morphine sulfate]
effect on cell proliferation vs control (KAT-18 cells [1]; [6]): Only OGF altered cell proliferation significantly

dynorphin A1-8 (YGGFLRRI; Dynorphin A(1-8); UniProt P01213 207-214, looked up)
effect on cell proliferation vs control (KAT-18 cells [1]; [6]): Only OGF altered cell proliferation significantly

C=CCN1CC[C@]23c4c5ccc(O)c4O[C@H]2C(=O)CC[C@@]3(O)[C@H]1C5 [naloxone]
effect of naloxone on the OGF-induced depression in cell acquisition (KAT-18 cells [1]; KAT-18 cells): blocked the depression in cell acquisition
change in cell number vs control (KAT-18 cells [1]; naloxone 10^-6 M with or without OGF 10^-6 M, 72 h (Fig. 2C)): no change in cell number; also recorded: did not have any influence on cell replication

O=C1CC[C@@]2(O)[C@H]3Cc4ccc(O)c5c4[C@@]2(CCN3CC2CC2)[C@H]1O5 [NTX, naltrexone]
cell number vs OGFr siRNA plus vehicle (KAT-18 cells [2]; [8]): did not differ from cells receiving OGFr siRNA plus vehicle
increase in cell number vs wildtype cells (KAT-18 cells [2]; [8]): 70%
increase in cell number vs wildtype cells receiving vehicle (KAT-18 cells [2]; 10^-6 M NTX, untreated and scrambled siRNA cultures (Fig. 4C)): 32%
increase in DNA synthesis (BrdU) vs control (KAT-18 cells [3]): 25%
apoptosis relative to positive control samples (KAT-18 cells [4]): negligible
number of apoptotic cells vs control (KAT-18 cells [4]): No differences in the number of apoptotic or necrotic cells
necrosis (KAT-18 cells [5]): negligible
number of necrotic cells vs control (KAT-18 cells [5]): No differences in the number of apoptotic or necrotic cells
increase in cell number from control (KTC-1 cells): 30%
increase in cell number from control (WRO 82-1 cells): 30%

endomorphin 1
effect on cell proliferation vs control (KAT-18 cells [1]; [6]): Only OGF altered cell proliferation significantly

YGGFM [opioid growth factor (OGF)]
Kd (OGFr): 3.5 nM
